Measurements as given in patent publication US11728018B2, “Subject-specific system and method for prevention of body adaptation for chronic treatment of disease” (OBERON SCIENCES ILAN LTD., priority 2017, dated 2023).
“And” between values parts separate entries of the source, which are not always exact repeats. Equal entries are not always repeated. Where two headings read alike, the source gives them in different places.

Assays:
C57Bl/6 mice given Con A [1] = type: in vivo
C57Bl/6 mice given Con A [2] = assay: Colchicine by gavage once six hours before ConA injection, serum ALT; type: in vivo; conditions: for ALT Average: N = 3
Experimental: Lack of an effect of low dose colchicine (0.5 mg, 3 times a day) as anti-inflammatory agent, while showing beneficial effect of low dose colchicine in diabetes and fatty liver disease. • Mice: C57Bl/6 mice, 11-12 weeks old • Duration: Mice will be administered once Colchicine six hours before ConA • Sacrifice: 14 hours after ConA injection.
Experiment Protocol: • Day 1: Administer all compounds by gavage 300 ul: saline or Colchicine • After 6 hours give Con A by injection IV 500 μg/mouse=20 mg/kg=[…] • Day 2: On the next day: sacrifice all mice • Take blood for serum ALT The results of this experiments are given in the table below and in FIG. 7.

[3] = system: PBMC from naïve GD patients; assay: PBMC from Gaucher patients incubated with ConA, IFNg ELISA; conditions: for IFNg ELISA, second value (Conc) / IFNg Conc: Colchicine 0.0625 pg/ml or dexamethasone 250 ug/well
mice on a High fat diet = assay: Low dose colchicine in high fat diet model of type 2 diabetes and fatty liver; type: in vivo; conditions: colchicine for two weeks, dose that had no anti-inflammatory effect
Experimental: • Give colchicine at the end of the experiment for two weeks to 4 mice who were on a High fat diet and developed diabetes and fatty liver disease. • Mice are treated with a dose that had no anti-inflammatory effect. • Test for glucose, ALT and cholesterol levels at the end of the two weeks.

[4] = in vivo; cited from earlier work
[5] = system: C57 Bl mice receiving CONA; assay: Daily low dose CONA in mice, regular vs irregular dexamethasone administration, serum ALT; type: in vivo; conditions: dexamethasone 50 mg/kg per day
Experimental: Mice: 24 C57 Bl mice, 12 weeks old, n=4/group
All animals received daily low dose CONA 300 μg/mouse daily for 10 days
Dexamethasone daily 50 mg/kg per day
ALT serum levels were monitored as follows

[6] = Patient 1, lymphocytes only 80.9
[7] = Patient 2, lymphocytes only 474.7

**Q.** Which “ALT (IU)” value (C57Bl/6 mice given Con A [1]; Ambroxol 1.4 mg PO, alone or with Colchicine 0.01 mg/kg, control 6068) does the source give for `Nc1c(Br)cc(Br)cc1CN[C@H]1CC[C@H](O)CC1` [Ambroxol] here?
**A.** 4243 IU

**Q.** And the “ALT Average” value (C57Bl/6 mice given Con A [1]; Ambroxol arm, N = 3, control 6068)?
**A.** 4243

**Q.** And the ALT (C57Bl/6 mice given Con A [1]; single mice, Ambroxol arm, dilution 1/40)?
**A.** 3683 and 4187 and 4859

**Q.** Which “ALT Average” value (C57Bl/6 mice given Con A [2]; Low dose, Colchicine 0.005 μg/kg by gavage) does the source give for `COc1cc2c(c(OC)c1OC)-c1ccc(OC)c(=O)cc1[C@@H](NC(C)=O)CC2` [Colchicine] here?
**A.** 3218

**Q.** And the “ALT Average” value (C57Bl/6 mice given Con A [2]; Regular dose, Colchicine 0.05 μg/kg by gavage)?
**A.** 17134

**Q.** And the ALT (C57Bl/6 mice given Con A [2]; single mice, Regular dose, Colchicine 0.05 μg/kg by gavage, dilution 1/40)?
**A.** 18946 and 19427 and 13029

**Q.** And the “IFNg ELISA, second value (Conc)” value ([3]; P1, lymphocytes only 80.9)?
**A.** 52.3

**Q.** What about the “IFNg ELISA, second value (Conc)” value ([3]; P2, lymphocytes only 474.7) of the same compound?
**A.** 47.57

**Q.** What about the “IFNg Conc” value [3, 6] of the same compound?
**A.** 52.3

**Q.** What about the “IFNg Conc” value [3, 7] of the same compound?
**A.** 47.57

**Q.** And the “effect on the inflammatory effect of PBMC from patients with Gaucher disease” value ([3]; summary in words)?
**A.** profound effect on suppressing the inflammatory effect of PBMC

**Q.** And the “Glucose (mg %)” value (mice on a High fat diet; control 190)?
**A.** 155 mg %

**Q.** What about the “ALT (IU)” value (mice on a High fat diet; control 278) of the same compound?
**A.** 103 IU

**Q.** What about the “Cholesterol (mg %)” value (mice on a High fat diet; control 342) of the same compound?
**A.** 100 mg %

**Q.** And the “part of dose excreted unchanged by the kidneys” value [4]?
**A.** 10-20%

**Q.** What about the removal by hemodialysis [4] of the same compound?
**A.** not removed by hemodialysis

**Q.** What about the “adjuvant effect on the efficacy of drugs” value (C57Bl/6 mice given Con A [1]; low dose colchicine, summary in words) of the same compound?
**A.** can serve as a potent adjuvant to improve the efficacy of drugs

**Q.** Which results are given for `C[C@@H]1C[C@H]2[C@@H]3CCC4=CC(=O)C=C[C@]4(C)[C@@]3(F)[C@@H](O)C[C@]2(C)[C@@]1(O)C(=O)CO` [Dexamethasone]?
**A.** IFNg ELISA, second value (Conc) ([3]; P1, lymphocytes only 80.9): 33.29; IFNg ELISA, second value (Conc) ([3]; P2, lymphocytes only 474.7): 23.29; IFNg Conc [3, 6]: 33.29; IFNg Conc [3, 7]: 23.29; ALT serum level ([5]; Day 2, group B, regular 8AM every day): 644.25; ALT serum level ([5]; Day 2, group C, irregular time of administration): 747; ALT serum level ([5]; Day 5, group B, regular 8AM every day): 978.75; ALT serum level ([5]; Day 5, group C, irregular time of administration): 842.5; ALT serum level ([5]; Day 10, group B, regular 8AM every day): 1210.25; ALT serum level ([5]; Day 10, group C, irregular time of administration): 876.75
